Results published in PMC9137037 (Frontiers in Oncology, 2022).
Where no end group is shown, it is not given here.

Columns and labels:
[1] = biological target: T1, human recombinant protein PD-1 (Homo sapiens, UniProt Q15116); assay: ELISA activity of dog sera with human recombinant protein PD-1; format: binding; settings: Figure 3F
T1 construct: His tag; purchased ACROBiosystems PD1-H5221
Procedure: For the detection of PD-1 human recombinant protein activity, the human recombinant protein PD-1 (PD1-H5221, HIS tag; ACROBiosystems, Newark, DE, USA) 100 μl at the concentration of […] were coated on the 96 wells plate as an antigen. The following procedures were performed as the description of ELISA.
In order to investigate the diversity of the antibody produced by immunized dogs, isotypes IgM, IgA, IgG1, and IgG2 in dogs were detected after being immunized with the peptide vaccine ( Figure 3E ). In MVF-PD-1(92-110) vaccine-treated dogs, the majority of isotype is IgG2, which ranged from 74% to 81%, the IgG1 range from 12% to 18%, IgM from 5% to 9%, and IgA less than 2%. Peptide sera from dogs #1, 2, and 3 were used to detect the antibody activity against human recombinant protein PD-1.

BALB/c mice = assay: ELISA antibody titers in sera of immunized BALB/c mice; format: in vivo; settings: mouse; Figure 1C
Procedure: The peptide vaccine MVF-PD-1(92-110) was dissolved in sterile water and mixed with either ISA 720 or ISA 51 (1:1) ratio. We utilized the well-established murine colon carcinoma cell line CT26 tumor model in syngeneic BALB/c mice to evaluate the effects of vaccination previously described ([23]). Briefly, 6–8-week-old female BALB/c mice were immunized with the peptide vaccine, and 2 weeks after the third immunization, the mice were challenged with 1×10^5 CT26 colon cancer cells by subcutaneous injection (SC). The CT26 cancer cell line was maintained in the DMEM medium with 10% FBS 5% CO2 at 37 °C. […] Tumor growth was monitored daily, especially 7 days after the tumor challenge. […]
Enzyme-linked immunosorbent assay (ELISA) was performed per our lab standard procedure. […] After washing, the antibody was detected using 50 μl of 0.15% H2O2 in 24 mM of citric acid and 5 mM of the sodium phosphate buffer (pH5.2) with 0.5 mg/ml 2, […] (3-ethylbenzthiazole- 6-sulfonic acid, ABTS; Sigma, St. Louis, MO, USA) as the chromophore. […] Absorbance was read at 415 nm using an ELISA microplate reader (SPECTRAmax PLUS384; Molecular Devices, San Jose, CA, USA). The highest dilution at the cutoff absorbance 0.2 were determined as the antibody titer. […]

beagle dogs [2] = assay: Antibody isotyping of sera of immunized beagle dogs; format: in vivo, dog; settings: dogs #1-#3
beagle dogs [3] = assay: ELISA antibody titers in sera of immunized beagle dogs; format: in vivo, dog; settings: for antibody titers in sera (words): beagle dogs, 1.0, 1.5, 3.0 mg with nor-MDP and ISA 720, ELISA
Procedure: In brief, the beagle dogs were purchased from Covance Research Products (Cumberland, VA, USA) and were housed in the Ohio State University Veterinarian Facility Institutional Animal Care Facility. The dogs were housed at 19°C−24°C room temperature with approximately 70% humidity, and 12 h light and 12 h dark–light cycle. The dogs’ body weights were at least 7.5 kg when they received the first immunization. […] The dogs received a total of 4 doses, immunization was done at the rear thigh with two sites of injections, the bleed was collected as indicated time points to monitor the antibody titers, and the body weight of each dog was monitored closely (see Figures 3B, C for detail).
Enzyme-linked immunosorbent assay (ELISA) was performed per our lab standard procedure. Briefly, a 96-well plate was coated with 100 μl of MVF-PD-1(92-110) peptide as an antigen at 2 μg/ml in phosphate-buffered saline (PBS; Research Products International, Mt Prospect, IL, USA, CAS No. 7647-145) overnight at 4°C. Nonspecific binding sites were blocked for 1 h with 200 μl of PBS with 1% BSA (bovine serum albumin; Thermo Fisher Scientific, Waltham, […], USA, BP9703-100), and the plate was washed with a washing buffer (PBS diluted 0.05% Tween 1% horse serum). […] After washing, the antibody was detected using 50 μl of 0.15% H2O2 in 24 mM of citric acid and 5 mM of the sodium phosphate buffer (pH5.2) with 0.5 mg/ml 2, […] (3-ethylbenzthiazole- 6-sulfonic acid, ABTS; Sigma, St. Louis, MO, USA) as the chromophore. […] Absorbance was read at 415 nm using an ELISA microplate reader (SPECTRAmax PLUS384; Molecular Devices, San Jose, CA, USA). The highest dilution at the cutoff absorbance 0.2 were determined as the antibody titer.
This study was designed to monitor the kinetics of how quickly the antibody levels to MVF-PD-1(92-110) diminished after the dosing was stopped. […] We monitored the beagle dogs’ body weight closely during the immunization period ( Figure 3C ).

T1 sequence (Q15116 25-288): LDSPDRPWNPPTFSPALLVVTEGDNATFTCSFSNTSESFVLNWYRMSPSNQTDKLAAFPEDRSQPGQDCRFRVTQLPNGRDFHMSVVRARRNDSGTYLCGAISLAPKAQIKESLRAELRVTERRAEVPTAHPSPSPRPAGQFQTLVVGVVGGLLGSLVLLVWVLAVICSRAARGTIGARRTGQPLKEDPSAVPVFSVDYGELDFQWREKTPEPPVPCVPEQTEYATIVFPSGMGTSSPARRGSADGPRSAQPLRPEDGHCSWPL

KLLSLIKGVIVHRLEGVEGPSLGAISLAPKAQIKESLRAEL [MVF-PD-1(92-110)]
activity against recombinant PD-1 protein (summary) [1]: high activity against recombinant PD-1 protein | immunogenicity (summary) (BALB/c mice): High immunogenicity ( Figure 1C ); | IgA isotype percentage (beagle dogs [2]): less than 2% | antibody titers in sera (words) (beagle dogs [3]): high titer antibody | antibody titers in sera (words) (beagle dogs [3]; listed as PD-1(92)): high immunogenicity | antibody titers after dosing stopped and after re-challenge (beagle dogs [3]; beagle dogs, 4Y boost 6 months after primary immunization): dropped to very low levels in the absence of dosing but could be recovered if the dog was re-challenged with vaccine
